How the values were obtained:
ACHN = assay: Growth inhibition of human ACHN cells assessed as cell growth at 1 uM incubated for 48 hrs by sulforhodamine B assay relative to control; type: functional; conditions: read-out: Activity
MOLT-4 = assay: Growth inhibition of human MOLT4 cells assessed as cell growth at 1 uM incubated for 48 hrs by sulforhodamine B assay relative to control; type: functional; conditions: MOLT-4, 48 h, read-out: Activity
CAKI-1 = assay: Growth inhibition of human Caki1 cells assessed as cell growth at 100 uM incubated for 48 hrs by sulforhodamine B assay relative to control; type: functional; conditions: CAKI-1, 48 h, read-out: Activity
OVCAR-5 [1] = assay: Growth inhibition of human OVCAR5 cells assessed as cell growth at 100 uM incubated for 48 hrs by sulforhodamine B assay relative to control; type: functional; conditions: OVCAR-5, 48 h, read-out: Activity
IGROV-1 = assay: Growth inhibition of human IGROV1 cells incubated for 48 hrs by sulforhodamine B assay; type: functional, cell-based; conditions: IGROV-1, 48 h
Malme-3M [2] = assay: Growth inhibition of human MALME-3M cells assessed as cell growth at 0.01 uM incubated for 48 hrs by sulforhodamine B assay relative to control; type: functional; conditions: read-out: Activity
OVCAR-5 [3] = assay: Growth inhibition of human OVCAR5 cells incubated for 48 hrs by sulforhodamine B assay; type: functional, cell-based; conditions: OVCAR-5, 48 h
Malme-3M [4] = assay: Growth inhibition of human MALME-3M cells assessed as cell growth at 0.1 uM incubated for 48 hrs by sulforhodamine B assay relative to control; type: functional; conditions: read-out: Activity
NCI-H460 = assay: Growth inhibition of human NCI-H460 cells assessed as cell growth at 1 uM incubated for 48 hrs by sulforhodamine B assay relative to control; type: functional; conditions: NCI-H460, 48 h, read-out: Activity
OVCAR-3 = assay: Growth inhibition of human OVCAR3 cells assessed as cell growth at 1 uM incubated for 48 hrs by sulforhodamine B assay relative to control; type: functional; conditions: OVCAR-3, 48 h, read-out: Activity
COLO 205 [5] = assay: Growth inhibition of human COLO205 cells incubated for 48 hrs by sulforhodamine B assay; type: functional, cell-based; conditions: COLO 205, 48 h
SR = assay: Growth inhibition of human SR cells assessed as cell growth at 100 uM incubated for 48 hrs by sulforhodamine B assay relative to control; type: functional; conditions: read-out: Activity
NCI/ADR-RES = assay: Growth inhibition of human NCI/ADR-RES cells assessed as cell growth at 1 uM incubated for 48 hrs by sulforhodamine B assay relative to control; type: functional; conditions: read-out: Activity
HCT-15 = assay: Growth inhibition of human HCT15 cells assessed as cell growth at 100 uM incubated for 48 hrs by sulforhodamine B assay relative to control; type: functional; conditions: HCT-15, 48 h, read-out: Activity
NCI-H226 = assay: Growth inhibition of human NCI-H226 cells assessed as cell growth at 1 uM incubated for 48 hrs by sulforhodamine B assay relative to control; type: functional; conditions: NCI-H226, 48 h, read-out: Activity
A498 = assay: Growth inhibition of human A498 cells assessed as cell growth at 0.01 uM incubated for 48 hrs by sulforhodamine B assay relative to control; type: functional; conditions: A498, 48 h, read-out: Activity
OVCAR-8 = assay: Growth inhibition of human OVCAR8 cells assessed as cell growth at 100 uM incubated for 48 hrs by sulforhodamine B assay relative to control; type: functional; conditions: OVCAR-8, 48 h, read-out: Activity
MDA-MB-231 [6] = assay: Growth inhibition of human MDA-MB-231 cells assessed as cell growth at 0.01 uM incubated for 48 hrs by sulforhodamine B assay relative to control; type: functional; conditions: MDA-MB-231, 48 h, read-out: Activity
COLO 205 [7] = assay: Growth inhibition of human COLO205 cells assessed as cell growth at 100 uM incubated for 48 hrs by sulforhodamine B assay relative to control; type: functional; conditions: COLO 205, 48 h, read-out: Activity
SN12C = assay: Growth inhibition of human SN12C cells incubated for 48 hrs by sulforhodamine B assay; type: functional, cell-based
SK-MEL-2 = assay: Growth inhibition of human SK-MEL-2 cells assessed as cell growth at 0.1 uM incubated for 48 hrs by sulforhodamine B assay relative to control; type: functional; conditions: SK-MEL-2, 48 h, read-out: Activity
RPMI-8226 = assay: Growth inhibition of human RPMI8226 cells assessed as cell growth at 100 uM incubated for 48 hrs by sulforhodamine B assay relative to control; type: functional; conditions: RPMI-8226, 48 h, read-out: Activity
UACC-257 [8] = assay: Growth inhibition of human UACC257 cells assessed as cell growth at 0.1 uM incubated for 48 hrs by sulforhodamine B assay relative to control; type: functional; conditions: UACC-257, 48 h, read-out: Activity
UACC-257 [9] = assay: Growth inhibition of human UACC257 cells assessed as cell growth at 0.01 uM incubated for 48 hrs by sulforhodamine B assay relative to control; type: functional; conditions: UACC-257, 48 h, read-out: Activity
SF-295 [10] = assay: Growth inhibition of human SF295 cells incubated for 48 hrs by sulforhodamine B assay; type: functional, cell-based; conditions: SF-295, 48 h
SF-295 [11] = assay: Growth inhibition of human SF295 cells assessed as cell growth at 100 uM incubated for 48 hrs by sulforhodamine B assay relative to control; type: functional; conditions: SF-295, 48 h, read-out: Activity
SNB-75 = assay: Growth inhibition of human SNB75 cells incubated for 48 hrs by sulforhodamine B assay; type: functional, cell-based; conditions: SNB-75, 48 h
NCI-H522 = assay: Growth inhibition of human NCI-H522 cells assessed as cell growth at 1 uM incubated for 48 hrs by sulforhodamine B assay relative to control; type: functional; conditions: NCI-H522, 48 h, read-out: Activity
MDA-MB-231 [12] = assay: Growth inhibition of human MDA-MB-231 cells assessed as cell growth at 0.1 uM incubated for 48 hrs by sulforhodamine B assay relative to control; type: functional; conditions: MDA-MB-231, 48 h, read-out: Activity
T47D = assay: Growth inhibition of human T47D cells assessed as cell growth at 0.1 uM incubated for 48 hrs by sulforhodamine B assay relative to control; type: functional; conditions: read-out: Activity
[13] = read-out: LC50 (the source's name)
[14] = read-out: pLC50 (the source's name) (converted)

## COc1cc(Cl)cc(-c2nn(-c3cccc(NC(=O)c4ccc(N5CCOCC5)c(C(F)(F)F)c4)c3)cc2-c2ccncc2)c1
ACHN
  growth at 1 µM: 58%
MOLT-4
  growth at 1 µM: 77%
CAKI-1
  growth at 100 µM: 14%
OVCAR-5 [1]
  growth at 100 µM: 38%
IGROV-1; read-out: GI50
  GI50: > 100 µM
IGROV-1; [13]
  CC50: > 100 µM
IGROV-1; read-out: TGI
  TGI: > 100 µM
IGROV-1; read-out: pGI50 (converted)
  GI50: > 100 µM
IGROV-1; [14]
  CC50: > 100 µM
IGROV-1; read-out: pTGI (converted)
  TGI: > 100 µM
Malme-3M [2]
  growth at 0.01 µM: 91%
OVCAR-5 [3]; read-out: GI50
  GI50: 3.25 µM
OVCAR-5 [3]; [13]
  CC50: > 100 µM
OVCAR-5 [3]; read-out: TGI
  TGI: > 100 µM
OVCAR-5 [3]; read-out: pGI50 (converted)
  GI50: 32.4 µM
OVCAR-5 [3]; [14]
  CC50: > 100 µM
OVCAR-5 [3]; read-out: pTGI (converted)
  TGI: > 100 µM
Malme-3M [4]
  growth at 0.1 µM: 85%
NCI-H460
  growth at 1 µM: 96%
OVCAR-3
  growth at 1 µM: 100%
COLO 205 [5]; read-out: GI50
  GI50: 2.22 µM
COLO 205 [5]; [13]
  CC50: > 100 µM
COLO 205 [5]; read-out: TGI
  TGI: > 100 µM
COLO 205 [5]; read-out: pGI50 (converted)
  GI50: 22.4 µM
COLO 205 [5]; [14]
  CC50: > 100 µM
COLO 205 [5]; read-out: pTGI (converted)
  TGI: > 100 µM
SR
  growth at 100 µM: 4%
NCI/ADR-RES
  growth at 1 µM: 92%
HCT-15
  growth at 100 µM: 5%
NCI-H226
  growth at 1 µM: 54%
A498
  growth at 0.01 µM: 59%
OVCAR-8
  growth at 100 µM: 32%
MDA-MB-231 [6]
  growth at 0.01 µM: 99%
COLO 205 [7]
  growth at 100 µM: 38%
SN12C; read-out: GI50
  GI50: > 100 µM
SN12C; read-out: LC50
  LC50: > 100 µM
SN12C; read-out: TGI
  TGI: > 100 µM
SN12C; read-out: pGI50 (converted)
  GI50: > 100 µM
SN12C; read-out: pLC50 (converted)
  LC50: > 100 µM
SN12C; read-out: pTGI (converted)
  TGI: > 100 µM
SK-MEL-2
  growth at 0.1 µM: 83%
RPMI-8226
  growth at 100 µM: 10%
UACC-257 [8]
  growth at 0.1 µM: 97%
UACC-257 [9]
  growth at 0.01 µM: 91%
SF-295 [10]; read-out: GI50
  GI50: 2.71 µM
SF-295 [10]; [13]
  CC50: > 100 µM
SF-295 [10]; read-out: TGI
  TGI: 14.8 µM
SF-295 [10]; read-out: pGI50 (converted)
  GI50: 2.19 µM
SF-295 [10]; [14]
  CC50: > 100 µM
SF-295 [10]; read-out: pTGI (converted)
  TGI: 14.8 µM
SF-295 [11]
  growth at 100 µM: -32%
SNB-75; read-out: GI50
  GI50: 2 µM
SNB-75; [13]
  CC50: > 100 µM
SNB-75; read-out: TGI
  TGI: > 100 µM
SNB-75; read-out: pGI50 (converted)
  GI50: 2.63 µM
SNB-75; [14]
  CC50: > 100 µM
SNB-75; read-out: pTGI (converted)
  TGI: > 100 µM
NCI-H522
  growth at 1 µM: 77%
MDA-MB-231 [12]
  growth at 0.1 µM: 97%
T47D
  growth at 0.1 µM: 95%

## COc1cc(Cl)cc(-c2nn(-c3cccc(NC(=O)Nc4ccc(Cl)c(C(F)(F)F)c4)c3)cc2-c2ccncc2)c1
ACHN
  growth at 1 µM: 45%
MOLT-4
  growth at 1 µM: 58%
CAKI-1
  growth at 100 µM: -40%
OVCAR-5 [1]
  growth at 100 µM: -89%
IGROV-1; read-out: GI50
  GI50: 3.2 µM
IGROV-1; [13]
  CC50: > 100 µM
IGROV-1; read-out: TGI
  TGI: 29.1 µM
IGROV-1; read-out: pGI50 (converted)
  GI50: 3.24 µM
IGROV-1; [14]
  CC50: > 100 µM
IGROV-1; read-out: pTGI (converted)
  TGI: 3.55 µM
Malme-3M [2]
  growth at 0.01 µM: 94%
OVCAR-5 [3]; read-out: GI50
  GI50: 2.13 µM
OVCAR-5 [3]; [13]
  CC50: 3.01 µM
OVCAR-5 [3]; read-out: TGI
  TGI: 71.5 µM
OVCAR-5 [3]; read-out: pGI50 (converted)
  GI50: 2.14 µM
OVCAR-5 [3]; [14]
  CC50: 30.2 µM
OVCAR-5 [3]; read-out: pTGI (converted)
  TGI: 28.8 µM
Malme-3M [4]
  growth at 0.1 µM: 79%
NCI-H460
  growth at 1 µM: 43%
OVCAR-3
  growth at 1 µM: 24%
COLO 205 [5]; read-out: GI50
  GI50: 1.53 µM
COLO 205 [5]; [13]
  CC50: 6.33 µM
COLO 205 [5]; read-out: TGI
  TGI: 31.1 µM
COLO 205 [5]; read-out: pGI50 (converted)
  GI50: 1.51 µM
COLO 205 [5]; [14]
  CC50: 6.31 µM
COLO 205 [5]; read-out: pTGI (converted)
  TGI: 3.09 µM
SR
  growth at 100 µM: -30%
NCI/ADR-RES
  growth at 1 µM: 66%
HCT-15
  growth at 100 µM: -90%
NCI-H226
  growth at 1 µM: 79%
A498
  growth at 0.01 µM: 57%
OVCAR-8
  growth at 100 µM: -33%
MDA-MB-231 [6]
  growth at 0.01 µM: 93%
COLO 205 [7]
  growth at 100 µM: -79%
SN12C; read-out: GI50
  GI50: 1.56 µM
SN12C; read-out: LC50
  LC50: > 100 µM
SN12C; read-out: TGI
  TGI: 82.1 µM
SN12C; read-out: pGI50 (converted)
  GI50: 1.55 µM
SN12C; read-out: pLC50 (converted)
  LC50: > 100 µM
SN12C; read-out: pTGI (converted)
  TGI: 8.13 µM
SK-MEL-2
  growth at 0.1 µM: 52%
RPMI-8226
  growth at 100 µM: -32%
UACC-257 [8]
  growth at 0.1 µM: 59%
UACC-257 [9]
  growth at 0.01 µM: 91%
SF-295 [10]; read-out: GI50
  GI50: 0.455 µM
SF-295 [10]; [13]
  CC50: 5.15 µM
SF-295 [10]; read-out: TGI
  TGI: 20 µM
SF-295 [10]; read-out: pGI50 (converted)
  GI50: 0.468 µM
SF-295 [10]; [14]
  CC50: 6.17 µM
SF-295 [10]; read-out: pTGI (converted)
  TGI: 2 µM
SF-295 [11]
  growth at 100 µM: -82%
SNB-75; read-out: GI50
  GI50: 1.77 µM
SNB-75; [13]
  CC50: > 100 µM
SNB-75; read-out: TGI
  TGI: 11.1 µM
SNB-75; read-out: pGI50 (converted)
  GI50: 1.78 µM
SNB-75; [14]
  CC50: > 100 µM
SNB-75; read-out: pTGI (converted)
  TGI: 11.2 µM
NCI-H522
  growth at 1 µM: 34%
MDA-MB-231 [12]
  growth at 0.1 µM: 91%
T47D
  growth at 0.1 µM: 103%
